In test [1] the target is T1, aggregated beta amyloid Ab(1-42) (Homo sapiens, UniProt P05067).
T1 construct: Synthetic beta amyloid, Ab(1-42) [Bachem Cat. No. H1368; H-Asp-Ala-Glu- Phe-Arg-His-Asp-Ser-Gly-Tyr; purchased Bachem H1368; host or cells: synthetic peptide
Briefly: Inhibition test of beta amyloid aggregation lysis (Thioflavin T fluorescence). As to conditions: FIG. 1. The format is biochemical. The protocol:
Synthetic beta amyloid, Ab(1-42) [Bachem Cat. No. H1368; H-Asp-Ala-Glu- Phe-Arg-His-Asp-Ser-Gly-Tyr-Glu-Val-His-His-Gln-Lys-Leu-Val-Phe-Phe-Ala-Glu- Asp-Val-Gly-Ser-Asn-Lys-Gly-Ala-Ile-Ile-Gly-Leu-Met-Val-Gly-Gly-Val-Val-Ile- Ala-OH]) was dissolved in DMSO in order that it induces aggregation at the concentration of 25 microM for 1 week. The test group added with aggregated betaamyloid and test samples inhibiting the inhibition of aggregation and a control group added with only A were reacted together at room temperature for 1 hour on fluorescent black plate. ThT (Thioflavin T) was diluted with 50 mM glycine buffer solution to be […] and the diluted solutions were added to each well by 150 μl/well. The fluorescence intensity of each group was determined by microplate reader (SAFIRE, TECAN) at 450 nm excitation wavelength/480 nm emission wavelength after shaking together for 10 seconds.

For another test, the system named is ChAT positive neuron. Kind of test: ChAT antibody staining of brain sections of transgenic mice. The format is in vivo, mouse. The conditions noted are these: FIG. 15. The protocol:
(§1) 13 months old dementia model male mice expressing APPswe was used in the experiment and the mice was divided into two groups, i.e., control group consisting of 2 mice and test groups consisting of 4 mice. Each mouse had been fed with the feed mixed with 3 mg of compound IIb everyday for 4 months.
Four tissue sections per mouse were added to PBST to flocculate and then anti-ChAT was added thereto with a ratio of 1:100. The solution was reacted together for overnight at 4° C. and the tissues were washed with PBST. Secondary antibody (HRP conjugated […] IgG antibody) was added thereto and mixed together with the mixed ratio of 1:1000 at room temperature one hour before the reaction.
After washing again with PBST, the tissues were stained to brown color with DAB kit as a staining agent. The stained tissues were photographed using by optical microscope connecting with […] camera and then the number of the ChAT positive neuron in the tissues was determined.

Another test relates to beta amyloid plaque. Kind of test: Congo Red staining of beta amyloid plaque in brain sections of transgenic mice. It is filed as in vivo, mouse. The conditions noted are these: FIG. 14.
A further test deals with A 42. Kind of test: ELISA of beta-amyloid in brain of transgenic mice (A 42). As to conditions: APPswe mice treated for 4 months. It is filed as in vivo, mouse. The protocol:
as §1
At the end of behavior test, the brain of mouse was delivered and the left hemisphere was frozen to be used as a cryo-section material. The remaining right hemisphere was used to measure the formation of beta-amyloid according to the procedure disclosed in the literature (J. Neurosci, 21(12), pp 4183-4187, 2001). […]
The amount of beta-amyloid in the brains of mice was determined by […] ELISA method according to the manual provided from Biosource Co and ELISA kit (KHB 3482, Biosource Co.) was used in the experiment. […] The level of color reaction was determined at 450 nm using by spectrophotometer and the absolute amount of beta-amyloid in the samples was transformed by comparing with standard value. The brain of the mice treated with the compound 18b for 4 months was delivered and the amount of beta-amyloid in supernatant obtained from the dissolved brain tissue was determined according to ELISA method.

Test [2] concerns ICR mouse administrated aggregated beta amyloid 1-42. Kind of test: AD acute model experiment - Y maze test. It is filed as in vivo. The protocol: For passive avoidance test, male ICR mouse weighing 25 g purchased from Samtaco Co. was bred with five mice per cage and the cage was kept with following condition maintaining the temperature of 22±2° C. and the relative humidity of […] under the regularly controlled light/dark condition with an interval of 12 hours.
Synthetic beta amyloid 1-42 (BACHEM) was dissolved in DMSO in order to be 250 μm solution and diluted with PBS to […] and aggregated at 37° C. for four days (Passive Avoidance test) or six days (Y maze test).
Aggregated beta amyloid 1-42 was administrated into the mice according to the procedure disclosed in the literature (Lausen & Belknap, J. Pharmacol. Methods, 16 pp 355-357, 1986). […]
The Y-maze test was performed two days after the administration of beta-amyloid. […] Thereafter, the entering order of the mice into the pathway was observed and the entering time was determined when four limbs of the mice were entered within the pathway. To determine the spatial memory, the percentage of spontaneous alteration behavior was calculated by applying the measured alteration frequency to following empirical formula 1 and the frequency of actual alteration behavior was assigned once at the time that the mice had entered the three pathways continuously. […]

Structures are written as SMILES.

T1 sequence (P05067 672-713): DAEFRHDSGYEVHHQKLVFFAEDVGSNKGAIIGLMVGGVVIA

As to `COCCCc1ccc2oc(-c3ccc(OC)c(OC)c3)cc2c1` [Compound 18b, 2-(3,4-dimethoxy-phenyl)-5-(3-methoxy-propyl)-benzofuran], the “solubilizing activity of beta-amyloid” value in test [1] is “potent solubilizing activity”. Further, the “number of neuron (ChAT positive) in brain” value with ChAT positive neuron is listed as “slightly increased”. The “numbers, size, and area of plaque in brain” value in the test on beta amyloid plaque is recorded as “significantly reduced”. For the same molecule, the “change of the amount of A 42 in brain (ELISA)” value in the test on A 42 was “no difference”. Further, the “recovering effect on memory learning capacity damaged by beta-amyloid (Y maze, spontaneous alteration)” value in test [2] (mice, oral, 50, 100 and 200 mg/kg, FIG. 2, FIG. 3) is on record as “potent recovering effect on memory learning capacity damaged by beta-amyloid in a dose dependent manner”. Besides, in test [2] (treatment group with more than 100 mg/kg, FIG. 3), the “effect on the memory learning capacity (Y maze), best dose group” value was “most excellent effect”.
